The values that follow come from ChEMBL document CHEMBL4190286, “Modulating the Serotonin Receptor Spectrum of Pulicatin Natural Products” (J Nat Prod, 2017).

Usually Ki stands for the dissociation constant of the complex between target and ligand, obtained from inhibition or displacement. Read a high Ki as a looser hold on the target. A word on the IC50: it is the concentration that gives 50% inhibition.

Assay [1] addresses T1, 5-hydroxytryptamine receptor 6 (Homo sapiens, UniProt P50406). Description: Displacement of [3H]-LSD from human 5-HT6 receptor expressed in HEK cells after 90 mins by microbeta scintillation counting analysis. The class given is cell-based. On the technique in general: Loss of bound radioactivity is the signal in a displacement assay; it reports binding, not function.
Assay [2] deals with T2, 5-hydroxytryptamine receptor 5A (Homo sapiens, UniProt P47898). Description: Displacement of [3H]-LSD from human 5-HT5A receptor expressed in Flp-In CHO cells after 90 mins by microbeta scintillation counting analysis. In kind it is cell-based.
The target in assay [3] is T3, 5-hydroxytryptamine receptor 1E (Homo sapiens, UniProt P28566). Briefly: Displacement of [3H]5-HT from human 5-HT1E receptor expressed in HEK cells after 90 mins by microbeta scintillation counting analysis. The class given is cell-based.
In assay [4] the target is T4, 5-hydroxytryptamine receptor 1B (Homo sapiens, UniProt P28222). Description: Displacement of [3H]5-CT from human 5-HT1B receptor expressed in HEK cells after 90 mins by microbeta scintillation counting analysis. The class given is cell-based.
In assay [5] the target is T5, 5-hydroxytryptamine receptor 1D (Homo sapiens, UniProt P28221). Description: Displacement of [3H]5-CT from human 5-HT1D receptor expressed in HEKT cells after 90 mins by microbeta scintillation counting analysis. In kind it is cell-based.
Assay [6] deals with T6, 5-hydroxytryptamine receptor 2B (Homo sapiens, UniProt P41595). Briefly: Displacement of [3H]-LSD from human 5-HT2B receptor expressed in HEK cells after 90 mins by microbeta scintillation counting analysis. In kind it is cell-based.
In assay [7] the target is T7, 5-hydroxytryptamine receptor 2A (Homo sapiens, UniProt P28223). Briefly: Displacement of [3H]Ketanserin from 5-HT2A (unknown origin) receptor after 90 mins by microbeta scintillation counting analysis.
The target in assay [8] is T8, 5-hydroxytryptamine receptor 3A (Homo sapiens, UniProt P46098).
T8 sequence (P46098 whole entry): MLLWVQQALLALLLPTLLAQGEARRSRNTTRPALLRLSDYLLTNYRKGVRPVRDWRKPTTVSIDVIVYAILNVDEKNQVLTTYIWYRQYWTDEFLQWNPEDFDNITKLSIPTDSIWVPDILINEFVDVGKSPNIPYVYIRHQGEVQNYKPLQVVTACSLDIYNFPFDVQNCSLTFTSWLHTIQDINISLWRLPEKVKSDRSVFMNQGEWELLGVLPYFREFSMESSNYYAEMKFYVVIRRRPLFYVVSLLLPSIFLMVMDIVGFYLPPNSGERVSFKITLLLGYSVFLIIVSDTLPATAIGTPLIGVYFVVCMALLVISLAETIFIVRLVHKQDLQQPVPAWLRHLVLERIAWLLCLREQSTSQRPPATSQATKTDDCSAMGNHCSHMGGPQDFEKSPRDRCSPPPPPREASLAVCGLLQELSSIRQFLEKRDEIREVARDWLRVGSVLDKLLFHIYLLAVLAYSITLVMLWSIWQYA
Briefly: Displacement of [3H]-GR65630 from human 5-HT3 receptor expressed in HEKT cells after 90 mins by microbeta scintillation counting analysis. The class given is cell-based.

In assay [9] the target is T9, 5-hydroxytryptamine receptor 1A (Homo sapiens, UniProt P08908).
T9 sequence (P08908 whole entry): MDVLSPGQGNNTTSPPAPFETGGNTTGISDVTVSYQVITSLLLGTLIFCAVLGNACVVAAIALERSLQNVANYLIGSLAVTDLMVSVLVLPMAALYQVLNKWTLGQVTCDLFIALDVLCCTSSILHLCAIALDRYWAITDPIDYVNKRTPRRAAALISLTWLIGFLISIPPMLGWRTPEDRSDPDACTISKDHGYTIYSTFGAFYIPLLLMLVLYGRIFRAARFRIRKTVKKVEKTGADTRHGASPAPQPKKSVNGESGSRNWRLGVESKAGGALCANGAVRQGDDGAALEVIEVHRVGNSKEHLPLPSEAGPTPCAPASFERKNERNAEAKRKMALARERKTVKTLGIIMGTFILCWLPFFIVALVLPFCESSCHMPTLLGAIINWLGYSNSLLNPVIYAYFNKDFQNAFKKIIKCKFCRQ
Description: Antagonist activity at 5-HT1A receptor (unknown origin) by Tango assay. The class given is functional.

Assay [10] addresses T10, 5-hydroxytryptamine receptor 7 (Homo sapiens, UniProt P34969). Briefly: Displacement of [3H]-LSD from human 5-HT7A receptor expressed in HEK cells after 90 mins by microbeta scintillation counting analysis. In kind it is cell-based.
Assay [11] concerns the target T11, 5-hydroxytryptamine receptor 2C (Homo sapiens, UniProt P28335).
T11 sequence (P28335 whole entry): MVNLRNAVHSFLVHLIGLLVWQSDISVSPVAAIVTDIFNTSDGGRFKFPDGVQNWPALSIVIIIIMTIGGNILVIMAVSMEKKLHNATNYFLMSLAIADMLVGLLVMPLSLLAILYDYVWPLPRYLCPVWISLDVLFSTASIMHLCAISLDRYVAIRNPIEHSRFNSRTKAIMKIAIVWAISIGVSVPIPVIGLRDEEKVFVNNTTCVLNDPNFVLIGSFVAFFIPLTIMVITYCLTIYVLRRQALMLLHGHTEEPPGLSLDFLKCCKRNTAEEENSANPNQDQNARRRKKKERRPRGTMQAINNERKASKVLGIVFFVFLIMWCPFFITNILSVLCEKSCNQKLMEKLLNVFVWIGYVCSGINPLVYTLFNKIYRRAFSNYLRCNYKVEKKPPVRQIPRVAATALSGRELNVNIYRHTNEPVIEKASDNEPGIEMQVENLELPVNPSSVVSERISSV
Briefly: Displacement of [3H]-Mesulergine from human 5-HT2C receptor expressed in HEKT cells after 90 mins by microbeta scintillation counting analysis. The class given is cell-based.

The target in assay [12] is T8, 5-hydroxytryptamine receptor 3A. Description: Binding affinity to 5-HT3 receptor (unknown origin) by radioligand binding assay.
Assay [13] has as its target T7, 5-hydroxytryptamine receptor 2A. Briefly: Binding affinity to 5-HT2A receptor (unknown origin) by radioligand binding assay.
For assay [14], the target named is T3, 5-hydroxytryptamine receptor 1E. Description: Binding affinity to 5-HT1E receptor (unknown origin) by radioligand binding assay.
Assay [15] addresses T4, 5-hydroxytryptamine receptor 1B. Briefly: Displacement of [3H]-LSD from human 5-HT1B receptor expressed in baculovirus infected Sf9 cells.
Assay [16] concerns the target T2, 5-hydroxytryptamine receptor 5A. Description: Binding affinity to 5-HT5A receptor (unknown origin) by radioligand binding assay.
Assay [17] has as its target T1, 5-hydroxytryptamine receptor 6. Description: Binding affinity to 5-HT6 receptor (unknown origin) by radioligand binding assay.
In assay [18] the target is T10, 5-hydroxytryptamine receptor 7. Briefly: Binding affinity to 5-HT7A receptor (unknown origin) by radioligand binding assay.
Assay [19] has as its target T11, 5-hydroxytryptamine receptor 2C. Description: Binding affinity to 5-HT2C receptor (unknown origin) by radioligand binding assay.
Assay [20] addresses T5, 5-hydroxytryptamine receptor 1D. Briefly: Binding affinity to 5-HT1D receptor (unknown origin) by radioligand binding assay.
Assay [21] concerns the target T6, 5-hydroxytryptamine receptor 2B. Briefly: Antagonist activity at 5-HT2B receptor (unknown origin) by calcium release assay. In kind it is functional.

Bounds are passed on as bounds.

T7 sequence (P28223 whole entry): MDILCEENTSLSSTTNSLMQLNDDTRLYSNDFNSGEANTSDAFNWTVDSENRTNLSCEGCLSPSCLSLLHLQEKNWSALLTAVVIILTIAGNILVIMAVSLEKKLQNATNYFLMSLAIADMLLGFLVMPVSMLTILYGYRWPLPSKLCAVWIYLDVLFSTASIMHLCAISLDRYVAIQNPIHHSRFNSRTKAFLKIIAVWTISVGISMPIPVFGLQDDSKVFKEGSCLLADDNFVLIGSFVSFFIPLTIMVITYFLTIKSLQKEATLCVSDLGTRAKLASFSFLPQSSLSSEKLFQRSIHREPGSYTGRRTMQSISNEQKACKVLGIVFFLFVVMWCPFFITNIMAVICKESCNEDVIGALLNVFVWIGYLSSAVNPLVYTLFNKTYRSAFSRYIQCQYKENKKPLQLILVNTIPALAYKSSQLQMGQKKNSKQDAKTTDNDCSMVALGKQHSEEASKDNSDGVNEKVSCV
T4 sequence (P28222 whole entry): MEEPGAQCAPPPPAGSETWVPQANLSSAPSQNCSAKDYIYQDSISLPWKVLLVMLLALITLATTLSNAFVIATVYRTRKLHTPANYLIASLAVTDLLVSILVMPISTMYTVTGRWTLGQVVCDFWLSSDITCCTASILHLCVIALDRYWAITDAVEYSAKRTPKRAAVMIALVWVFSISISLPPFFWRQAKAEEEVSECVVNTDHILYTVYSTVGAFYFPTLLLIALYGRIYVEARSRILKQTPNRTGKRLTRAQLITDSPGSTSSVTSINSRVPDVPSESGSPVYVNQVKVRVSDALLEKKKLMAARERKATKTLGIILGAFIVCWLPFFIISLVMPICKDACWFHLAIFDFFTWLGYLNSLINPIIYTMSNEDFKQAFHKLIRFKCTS
T1 sequence (P50406 whole entry): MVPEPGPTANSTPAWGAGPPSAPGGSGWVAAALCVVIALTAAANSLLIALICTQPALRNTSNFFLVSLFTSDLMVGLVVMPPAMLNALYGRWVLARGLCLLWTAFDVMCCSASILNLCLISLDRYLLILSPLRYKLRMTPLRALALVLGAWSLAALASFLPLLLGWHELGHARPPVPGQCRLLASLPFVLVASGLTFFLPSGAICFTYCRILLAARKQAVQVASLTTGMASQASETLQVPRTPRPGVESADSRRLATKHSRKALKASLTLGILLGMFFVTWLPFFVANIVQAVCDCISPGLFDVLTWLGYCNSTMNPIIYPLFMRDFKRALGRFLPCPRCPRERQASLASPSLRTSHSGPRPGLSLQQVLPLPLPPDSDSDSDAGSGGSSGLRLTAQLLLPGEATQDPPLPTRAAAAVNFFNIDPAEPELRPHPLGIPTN
T6 sequence (P41595 whole entry): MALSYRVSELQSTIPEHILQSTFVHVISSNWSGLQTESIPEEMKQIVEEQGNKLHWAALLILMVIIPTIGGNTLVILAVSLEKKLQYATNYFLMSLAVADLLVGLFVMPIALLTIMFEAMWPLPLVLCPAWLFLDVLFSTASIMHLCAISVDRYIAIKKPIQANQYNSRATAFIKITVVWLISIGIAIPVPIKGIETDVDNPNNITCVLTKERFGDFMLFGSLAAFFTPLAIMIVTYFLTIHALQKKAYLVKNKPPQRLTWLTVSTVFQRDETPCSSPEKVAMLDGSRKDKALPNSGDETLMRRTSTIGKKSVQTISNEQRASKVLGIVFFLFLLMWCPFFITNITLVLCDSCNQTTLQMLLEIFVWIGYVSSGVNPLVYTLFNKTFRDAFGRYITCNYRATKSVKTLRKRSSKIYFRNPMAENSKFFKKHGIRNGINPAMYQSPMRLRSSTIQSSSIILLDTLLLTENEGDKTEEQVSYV
T2 sequence (P47898 whole entry): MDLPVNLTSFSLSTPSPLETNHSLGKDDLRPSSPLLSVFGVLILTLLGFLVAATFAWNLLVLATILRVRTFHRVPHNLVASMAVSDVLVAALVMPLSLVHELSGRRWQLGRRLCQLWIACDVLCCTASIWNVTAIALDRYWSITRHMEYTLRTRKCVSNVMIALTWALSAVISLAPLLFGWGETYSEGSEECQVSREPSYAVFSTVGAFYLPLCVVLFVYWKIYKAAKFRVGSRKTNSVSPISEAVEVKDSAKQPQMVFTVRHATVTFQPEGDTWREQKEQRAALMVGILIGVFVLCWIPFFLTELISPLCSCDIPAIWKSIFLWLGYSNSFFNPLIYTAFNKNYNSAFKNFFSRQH
T3 sequence (P28566 whole entry): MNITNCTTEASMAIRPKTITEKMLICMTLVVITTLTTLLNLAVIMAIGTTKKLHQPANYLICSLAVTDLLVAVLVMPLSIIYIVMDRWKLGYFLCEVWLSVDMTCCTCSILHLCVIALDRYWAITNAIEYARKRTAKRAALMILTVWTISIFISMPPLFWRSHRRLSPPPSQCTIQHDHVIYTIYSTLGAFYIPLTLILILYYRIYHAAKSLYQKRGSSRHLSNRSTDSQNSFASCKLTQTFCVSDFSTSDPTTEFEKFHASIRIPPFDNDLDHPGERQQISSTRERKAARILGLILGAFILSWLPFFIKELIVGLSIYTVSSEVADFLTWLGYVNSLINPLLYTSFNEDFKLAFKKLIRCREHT
T10 sequence (P34969 whole entry): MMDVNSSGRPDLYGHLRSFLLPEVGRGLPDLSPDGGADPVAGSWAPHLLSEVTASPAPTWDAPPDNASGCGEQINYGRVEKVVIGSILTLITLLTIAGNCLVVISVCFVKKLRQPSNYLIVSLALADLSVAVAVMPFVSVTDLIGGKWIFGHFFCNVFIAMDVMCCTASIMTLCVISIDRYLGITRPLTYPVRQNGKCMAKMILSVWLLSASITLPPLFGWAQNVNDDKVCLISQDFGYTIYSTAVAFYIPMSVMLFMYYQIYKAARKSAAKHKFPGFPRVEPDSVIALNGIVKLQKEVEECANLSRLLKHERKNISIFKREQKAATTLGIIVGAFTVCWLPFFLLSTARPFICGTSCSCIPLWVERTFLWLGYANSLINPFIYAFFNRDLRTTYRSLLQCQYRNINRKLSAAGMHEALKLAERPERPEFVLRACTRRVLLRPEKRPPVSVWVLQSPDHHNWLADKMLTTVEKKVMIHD
T5 sequence (P28221 whole entry): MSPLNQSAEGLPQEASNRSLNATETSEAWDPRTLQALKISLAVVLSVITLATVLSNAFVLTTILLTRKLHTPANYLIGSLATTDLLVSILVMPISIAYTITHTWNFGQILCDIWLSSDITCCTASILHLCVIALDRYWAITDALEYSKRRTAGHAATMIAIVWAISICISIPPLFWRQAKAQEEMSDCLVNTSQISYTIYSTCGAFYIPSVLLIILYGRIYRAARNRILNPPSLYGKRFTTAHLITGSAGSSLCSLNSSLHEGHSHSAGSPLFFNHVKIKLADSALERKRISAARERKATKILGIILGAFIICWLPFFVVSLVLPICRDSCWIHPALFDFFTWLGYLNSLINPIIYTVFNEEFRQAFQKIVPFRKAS

With `CCCCCCCCOc1ccc(C2=N[C@@H](CO)[C@H](C)S2)cc1` (relative stereo), the inhibition constant (Ki) in assay [1], in assay [2], in assay [3], in [4], in assay [5] and in [6] was more than 10 µM in each case. For the same molecule, the Ki in assay [7] is 6.9 µM; in assay [8] it was more than 10 µM; in [10], more than 10 µM; in [11], 3.6 µM. For the same molecule, in assay [9], the IC50 was more than 10 µM.

On to `NC(=O)C1CSC(c2ccccc2O)=N1` (racemic) [PULICATINS G], for which the Ki in [12], in [13], in assay [14], in assay [15], in assay [16] and in assay [17] was more than 10 µM throughout. The Ki in assay [18], in [19] and in assay [20] was more than 10 µM throughout.

For the molecule `NC(=O)c1csc(-c2ccccc2O)n1` [PULICATINS F], the Ki in assay [12], in assay [13], in [14], in assay [15], in assay [16] and in [17] was more than 10 µM throughout. Further, the Ki in assay [18], in assay [19] and in assay [20] was more than 10 µM throughout.

As for `Oc1ccccc1C1=NC(Cc2c[nH]cn2)CS1` (racemic), the Ki in assay [1] was more than 10 µM; in assay [2], more than 10 µM; in assay [3], more than 10 µM; in assay [4], more than 10 µM; in assay [5] it was 1.9 µM; in assay [6] it was 0.1 µM. Moreover, the Ki in assay [7] was more than 10 µM; in assay [8] it was 0.95 µM; in assay [10], 7.4 µM; in [11], more than 10 µM.

On to `COC(=O)[C@H](Cc1cnc[nH]1)NC(=O)[C@@H]1N=C(c2ccccc2O)S[C@@H]1C`, for which the Ki in assay [1] was more than 10 µM; in assay [2] it was more than 10 µM; in [3], 4.6 µM; in [5] it was 0.53 µM; in [6], 1.4 µM; in assay [8], 3.1 µM. Moreover, the figures for the inhibitory constant (Ki) in [10] and in assay [11] were more than 10 µM and 0.88 µM, respectively. Further, the concentration for half-maximal inhibition (IC50) in assay [9] and in assay [21] was more than 10 µM each time.

In turn, `C[C@H]1SC(c2ccccc2O)=N[C@H]1CO` returned a Ki in [6] of 0.4 µM.

Turning to `C[C@@H]1SC(c2c[nH]c3ccccc23)=N[C@H]1CO` (relative stereo), the Ki is more than 10 µM in [1]; more than 10 µM in assay [2]; more than 10 µM in assay [3]; more than 10 µM in assay [4]; 2.7 µM in assay [5]; 2.4 µM in assay [6]. The Ki is more than 10 µM in assay [7], 2.8 µM in assay [8], more than 10 µM in [10] and 5.4 µM in [11].

Turning to `CNc1ccccc1C1=N[C@@H](CO)[C@H](C)S1` (relative stereo), the inhibition constant (Ki) in assay [1] is more than 10 µM; in assay [2] it was more than 10 µM; in assay [3] it was more than 10 µM; in assay [4] it was more than 10 µM; in assay [5], 8.5 µM; in [6] it was 1.2 µM. Moreover, the Ki in [7] is more than 10 µM; in assay [8] it was 3.6 µM; in [10] it was more than 10 µM; in [11], 1.9 µM.

Consider `C[C@@H]1SC(c2cccs2)=N[C@H]1CO` (relative stereo), for which the inhibition constant (Ki) in assay [1] is more than 10 µM; in [2], more than 10 µM; in assay [3] it was more than 10 µM; in [4], more than 10 µM; in assay [5], more than 10 µM; in assay [6], 1.4 µM. For the same molecule, the Ki in [7] is more than 10 µM; in assay [8] it was more than 10 µM; in assay [10] it was more than 10 µM; in [11] it was 2.2 µM.

In the case of `C[C@@H]1SC(c2cc3ccccc3cc2O)=N[C@H]1CO` (relative stereo), the Ki is more than 10 µM in [1]; more than 10 µM in [2]; more than 10 µM in assay [3]; more than 10 µM in assay [4]; more than 10 µM in assay [5]; 0.81 µM in assay [6]. The Ki is more than 10 µM in assay [7], 1.8 µM in assay [8], more than 10 µM in assay [10] and 2.4 µM in [11].

`C[C@H]1SC(c2ccccc2O)=N[C@@H]1CO` (racemic): the Ki in assay [6] was 0.62 µM; in assay [11], 2.2 µM.

Turning to `C[C@@H]1SC(c2ccccc2)=N[C@H]1CO` (relative stereo), the Ki in [1] was more than 10 µM; in assay [2] it was more than 10 µM; in assay [3], more than 10 µM; in [4], more than 10 µM; in assay [5], 5.3 µM; in assay [6], 3 µM. For the same molecule, the Ki in assay [7] is more than 10 µM; in assay [8], 6.7 µM; in assay [10], more than 10 µM; in assay [11], 35 µM.

In the case of `C[C@@H]1SC(c2ccc(-c3ccccc3)cc2)=N[C@H]1Cc1c[nH]cn1` (relative stereo), the inhibition constant Ki in [6] is 1.1 µM; in assay [7], 0.24 µM; in assay [11], 1.4 µM.

For the molecule `C[C@@H]1SC(c2ccco2)=N[C@H]1CO` (relative stereo), the inhibitory constant (Ki) in assay [1], in assay [2], in [3], in [4], in assay [5] and in [6] was more than 10 µM throughout. For the same molecule, the Ki in assay [7], in [8], in assay [10] and in assay [11] was more than 10 µM throughout.

Regarding `C[C@H]1SC(c2ccc(-c3ccccc3)cc2)=N[C@H]1Cc1c[nH]cn1` (relative stereo), the inhibitory constant (Ki) in assay [6] came out at 1.4 µM; in assay [7], 0.31 µM; in [11] it was 2.3 µM.

As for `C[C@@H]1SC(c2ccsc2)=N[C@H]1CO` (relative stereo), the Ki in assay [1] is more than 10 µM; in assay [2], 8.2 µM; in [3], more than 10 µM; in assay [4], more than 10 µM; in assay [5], 8.6 µM; in [6] it was 1.5 µM. Also, the Ki in [7] was more than 10 µM; in [8], 6.7 µM; in assay [10], more than 10 µM; in assay [11], more than 10 µM.

`Oc1ccccc1C1=N[C@@H]2CCC[C@@H]2S1` (racemic): the inhibitory constant (Ki) in assay [1], in assay [2], in [3], in [4], in assay [5] and in assay [6] was more than 10 µM in each case. The inhibition constant Ki in assay [7], in [8], in [10] and in assay [11] was more than 10 µM in each case.
